Data as given in ChEMBL document CHEMBL5223157, “Divergent reactivity of usnic acid and evaluation of its derivatives for antiproliferative activity against cancer cells” (Bioorg Med Chem, 2023).
≈ marks a conversion by molar mass, not a printed value. Calls of active or inactive are those of the source. The calls are words filed in the database; no cut-off is given here.

Key:
HeLa [1] = experiment: Antiproliferative activity against human HeLa cells assessed as reduction in cell viability measured at 24 hrs by MTT assay; format: functional, cell-based
HeLa [2] = experiment: Antiproliferative activity against human HeLa cells assessed as reduction in cell viability measured at 48 hrs by MTT assay; format: functional, cell-based
[3] = Half life in human liver microsomes; format: ADME, Microsome
HDFa = experiment: Antiproliferative activity against human HDFa cells assessed as reduction in cell viability measured at 48 hrs by MTT assay; format: functional, cell-based
[4] = Aqueous solubility of compound in PBS at pH 7.4; format: physicochemical
[5] = Aqueous solubility of the compound in simulated gastric fluid; format: ADME
[6] = Aqueous solubility of the compound in simulated intestinal fluid; format: ADME
[7] = Permeability across apical to basolateral side in human Caco-2 cells; format: ADME, cell-based; conditions: read-out: permeability
[8] = Permeability across basolateral to apical side in human Caco-2 cells; format: ADME, cell-based; conditions: read-out: permeability
[9] = Lipophilicity, logD of the compound; format: physicochemical; conditions: octanol/water
[10] = Plasma protein binding in human relative to control; format: ADME, cell-free; conditions: read-out: PPB (converted)
[11] = Drug recovery in human plasma relative to control; format: ADME, cell-free
CYP2C8 = molecular target: T1, CYP2C8 (Homo sapiens, UniProt P10632); experiment: Inhibition of CYP2C8 in human liver microsomes at 10 uM relative to control; format: ADME, Microsome
T1 sequence (P10632 whole entry): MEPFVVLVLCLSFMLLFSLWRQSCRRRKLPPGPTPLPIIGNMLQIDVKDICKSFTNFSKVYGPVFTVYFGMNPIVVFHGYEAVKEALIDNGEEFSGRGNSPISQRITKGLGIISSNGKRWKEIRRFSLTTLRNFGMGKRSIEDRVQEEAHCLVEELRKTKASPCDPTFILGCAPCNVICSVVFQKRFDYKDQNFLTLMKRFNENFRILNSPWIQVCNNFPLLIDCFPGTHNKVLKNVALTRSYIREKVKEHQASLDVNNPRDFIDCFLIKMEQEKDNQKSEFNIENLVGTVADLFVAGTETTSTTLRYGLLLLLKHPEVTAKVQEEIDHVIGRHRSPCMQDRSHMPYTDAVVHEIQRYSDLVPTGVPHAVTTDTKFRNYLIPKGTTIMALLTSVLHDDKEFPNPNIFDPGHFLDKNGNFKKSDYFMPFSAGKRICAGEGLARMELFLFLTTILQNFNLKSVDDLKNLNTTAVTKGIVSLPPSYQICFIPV

CYP2C9 = CYP2C9 (Homo sapiens, UniProt P11712); experiment: Inhibition of CYP2C9 in human liver microsomes at 10 uM relative to control; format: ADME, Microsome
Sequence of CYP2C9 (P11712 whole entry): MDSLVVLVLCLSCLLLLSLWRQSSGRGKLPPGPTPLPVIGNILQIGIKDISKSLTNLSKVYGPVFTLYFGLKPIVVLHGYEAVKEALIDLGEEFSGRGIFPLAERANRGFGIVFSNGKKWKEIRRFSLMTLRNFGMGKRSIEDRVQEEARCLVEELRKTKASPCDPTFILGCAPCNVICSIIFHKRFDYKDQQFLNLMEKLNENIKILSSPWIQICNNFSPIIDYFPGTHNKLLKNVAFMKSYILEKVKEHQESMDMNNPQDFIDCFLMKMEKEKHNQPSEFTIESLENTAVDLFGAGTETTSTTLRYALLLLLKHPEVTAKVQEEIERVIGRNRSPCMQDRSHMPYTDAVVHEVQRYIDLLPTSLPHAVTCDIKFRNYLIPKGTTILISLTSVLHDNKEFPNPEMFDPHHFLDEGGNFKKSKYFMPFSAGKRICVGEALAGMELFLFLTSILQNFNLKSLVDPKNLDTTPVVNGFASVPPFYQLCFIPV

CYP2C19 = CYP2C19 (Homo sapiens, UniProt P33261); experiment: Inhibition of CYP2C19 in human liver microsomes at 10 uM relative to control; format: ADME, Microsome
Sequence of CYP2C19 (P33261 whole entry): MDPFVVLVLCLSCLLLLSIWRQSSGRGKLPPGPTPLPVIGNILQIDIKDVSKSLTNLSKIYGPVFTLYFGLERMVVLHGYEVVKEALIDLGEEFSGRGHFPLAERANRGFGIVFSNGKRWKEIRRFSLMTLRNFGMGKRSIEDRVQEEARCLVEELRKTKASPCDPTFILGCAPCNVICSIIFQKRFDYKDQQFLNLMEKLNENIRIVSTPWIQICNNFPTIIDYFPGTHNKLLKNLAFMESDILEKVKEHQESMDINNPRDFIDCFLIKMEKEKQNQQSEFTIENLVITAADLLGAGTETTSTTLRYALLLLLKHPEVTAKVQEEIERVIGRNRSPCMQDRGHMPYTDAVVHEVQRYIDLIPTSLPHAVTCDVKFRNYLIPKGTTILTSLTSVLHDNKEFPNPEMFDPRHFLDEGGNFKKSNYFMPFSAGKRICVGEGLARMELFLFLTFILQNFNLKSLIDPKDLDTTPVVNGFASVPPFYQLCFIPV

CYP3A = CYP3A (Homo sapiens, UniProt P08684+P20815+P24462+Q9HB55); experiment: Inhibition of CYP3A in human liver microsomes at 10 uM relative to control; format: ADME, Microsome
Cytochrome P450 2C19 = Cytochrome P450 2C19 (Homo sapiens, UniProt P33261); experiment: Inhibition of CYP2C19 in human liver microsomes; format: ADME, Microsome
Sequence of Cytochrome P450 2C19 (P33261 whole entry): as above

Cytochrome P450 2C9 = Cytochrome P450 2C9 (Homo sapiens, UniProt P11712); experiment: Inhibition of CYP2C9 in human liver microsomes; format: ADME, Microsome
Sequence of Cytochrome P450 2C9 (P11712 whole entry): as the sequence (P11712 whole entry) above

Cytochrome P450 2C8 = molecular target: T2, Cytochrome P450 2C8 (Homo sapiens, UniProt P10632); experiment: Inhibition of CYP2C8 in human liver microsomes; format: ADME, Microsome
T2 sequence (P10632 whole entry): T1 sequence (P10632 whole entry)

[12] = Toxicity in nude mouse xenografted with human MCF7 cells assessed as side effects at 400 mg/kg, po; format: organism-based; conditions: in vivo

## CC(=O)c1c(O)c(C)c(O)c2c1O[C@@H]1Cc3n[nH]c(C)c3C(=O)[C@]21C
HeLa [1]
  IC50: > 15 µM
HeLa [2]
  IC50: > 15 µM

## CC(C)=N/N=C(\C)c1c(O)c(C)c(O)c2c1OC1=CC(=O)c3c(n[nH]c3C)[C@@]12C
HeLa [1]
  IC50: > 15 µM
HeLa [2]
  IC50: 8.65 µM

## COc1cccc2c1C(=O)c1c(O)c3c(c(O)c1C2=O)C[C@@](O)(C(=O)CO)C[C@@H]3O[C@H]1C[C@H](N)[C@H](O)[C@H](C)O1 [DOXORUBICIN]
HeLa [1]
  IC50: 3.33 µM
HeLa [2]
  IC50: 0.429 µM

## CC(=O)c1c(O)c(C)c(O)c2c1OC1=CC(=O)c3c(C)noc3[C@@]12C
HeLa [1]
  IC50: > 15 µM
HeLa [2]
  IC50: > 15 µM

## CCn1nc(C)c2c1C=C1Oc3c(C(C)=O)c(O)c(C)c(O)c3[C@@]1(C)C2=O
HeLa [1]
  IC50: > 15 µM
HeLa [2]
  IC50: 11 µM

## CC(=O)c1c(O)c(C)c(O)c2c1OC1=CC(=O)c3c(n[nH]c3C)[C@@]12C
[3]
  half-life: > 1 h
HeLa [1]
  IC50: 1.92 µM
HeLa [2]
  IC50: 0.878 µM
HDFa
  Activity: inactive
[4]
  solubility: 4 µM (≈ 1.36 µg/mL)
[5]
  solubility: > 200 µM
[6]
  solubility: 11.5 µM (≈ 3.91 µg/mL)
[7]
  Papp A→B: 11.3 ×10⁻⁶ cm/s
[8]
  Papp B→A: 1.6 ×10⁻⁶ cm/s
[9]
  logD: > 3.68
[10]
  fraction unbound: 0.04
[11]
  Drug recovery: 19%
CYP2C8
  inhibition at 10 µM: 52.6%
CYP2C9
  inhibition at 10 µM: 74.6%
CYP2C19
  inhibition at 10 µM: 65.9%
CYP3A
  inhibition at 10 µM: 51.3%
Cytochrome P450 2C19
  IC50: 0.009 µM
Cytochrome P450 2C9
  IC50: 0.094 µM
Cytochrome P450 2C8
  IC50: 1.9 µM

## CC(=O)c1c(O)c(C)c(O)c2c1OC1=Cc3c(c(C)nn3CCO)C(=O)[C@@]12C
HeLa [1]
  IC50: > 15 µM
HeLa [2]
  IC50: > 15 µM

## CC(=O)c1c(O)c(C)c(O)c2c1OC1=CC(O)=C(/C(C)=N/N(C)C)C(=O)[C@@]12C
HeLa [1]
  IC50: > 15 µM
HeLa [2]
  IC50: > 15 µM

## CC(=O)c1c(O)c(C)c(O)c2c1OC1=CC(=O)c3c(C)nn(C)c3[C@@]12C
HeLa [1]
  IC50: > 15 µM
HeLa [2]
  IC50: > 15 µM

## CC(=O)C1=C(O)C=C2Oc3c(C(C)=O)c(O)c(C)c(O)c3[C@@]2(C)C1=O [(+)-USNIC ACID]
[3]
  half-life: 1.32 h
HeLa [1]
  IC50: > 15 µM
HeLa [2]
  IC50: > 15 µM
[10]
  fraction unbound: 0.0024
[11]
  Drug recovery: 95%

## CC(=O)c1c(O)c(C)c(O)c2c1O[C@@H]1Cc3n[nH]c(C)c3[C@H](O)[C@]21C
HeLa [1]
  IC50: > 15 µM
HeLa [2]
  IC50: > 15 µM

## CC(=O)c1c(O)c(C)c(O)c2c1OC1=CC(O)=C(/C(C)=N/N)C(=O)[C@@]12C
HeLa [1]
  IC50: > 15 µM
HeLa [2]
  IC50: > 15 µM

## CC(=O)c1c(O)c(C)c(O)c2c1OC1=Cc3c(c(C)nn3CCBr)C(=O)[C@@]12C
HeLa [1]
  IC50: > 15 µM
HeLa [2]
  IC50: > 15 µM

## CC(=O)c1c(O)c(C)c(O)c2c1OC1=Cc3c(c(C)nn3-c3ccccn3)C(=O)[C@@]12C
HeLa [1]
  IC50: > 15 µM
HeLa [2]
  IC50: > 15 µM

## CC(=O)c1c(O)c(C)c(O)c2c1OC1=CC(=O)c3c(nn(C)c3C)[C@@]12C
HeLa [1]
  IC50: 0.928 µM
HeLa [2]
  IC50: 0.116 µM
HDFa
  Activity: inactive

## CC(=O)c1c(O)c(C)c(O)c2c1OC1=Cc3onc(C)c3C(=O)[C@@]12C
[3]
  half-life: 0.383 h
HeLa [1]
  IC50: 7.15 µM
HeLa [2]
  IC50: 2.21 µM
[12]
  Activity: Non-Toxic
[4]
  solubility: 0.2 µM (≈ 0.0683 µg/mL)
[5]
  solubility: 37.6 µM (≈ 12.8 µg/mL)
[6]
  solubility: 1.6 µM (≈ 0.546 µg/mL)
[7]
  Papp A→B: 2.2 ×10⁻⁶ cm/s
[8]
  Papp B→A: 0.2 ×10⁻⁶ cm/s
[9]
  logD: 3.32
[10]
  fraction unbound: 0.06
[11]
  Drug recovery: 19%
CYP2C8
  inhibition at 10 µM: 8.5%
CYP2C19
  inhibition at 10 µM: 15.6%
CYP3A
  inhibition at 10 µM: 14.7%

## CC(=O)c1c(O)c(C)c(O)c2c1OC1=Cc3c(c(C)nn3C(C)(C)C)C(=O)[C@@]12C
HeLa [1]
  IC50: > 15 µM
HeLa [2]
  IC50: > 15 µM

## CC(=O)c1c(O)c(C)c(O)c2c1OC1=Cc3[nH]nc(C)c3C(=O)[C@@]12C
HeLa [1]
  IC50: 1.36 µM
HeLa [2]
  IC50: 0.311 µM
HDFa
  Activity: inactive

## CC(=O)c1c(O)c(C)c(O)c2c1OC1=Cc3c(c(C)nn3C)C(=O)[C@@]12C
HeLa [1]
  IC50: > 15 µM
HeLa [2]
  IC50: 3.91 µM
